Assay results: US10562882B2, “Piperidine derivatives for use in the treatment or prevention of psychiatric and neurological conditions” (Takeda Pharmaceutical Company Limited, priority 2013, dated 2020)

Target: human PKR1 receptors (Homo sapiens (Human), UniProt Q8TCW9)
Experiment: PKR1 antagonist intracellular calcium (FLIPR) assay, block of PK1-mediated calcium release
Type: cell-based
Conditions: RBL2H3 cells expressing human PKR1; PK1 at EC80; minimum of two independent assays
Procedure: Prokineticin receptor 1 (PKR1) antagonists may be functionally assessed by measurement of change in intracellular calcium levels induced by Gq mediated increase in inositol triphosphate (IP3) levels. The ability of a compound to block the intracellular release of calcium mediated by PK1 in RBL2H3 cells expressing human PKR1 receptors is determined as a measure of the compound's antagonist activity in vitro.
Approximately 10,000 cells per assay well are seeded in normal culture medium in a 384 well plate (Corning). Twenty-four hours after seeding, the cells are loaded with a calcium sensitive fluorescent dye by replacing the culture medium with assay buffer (1× Hanks buffered saline, 25 mM HEPES, 0.1% w/v fatty acid free BSA (bovine serum albumin), pH 7.4) containing 1 mM probenecid and 1× Calcium 5 Reagent (Molecular Devices). Cells are incubated at 37° C. for 1 hour to allow for dye uptake.
To test for antagonist activity, test compounds at a final concentration range between 0.32 nM-10 μM (diluted in assay buffer) are added to duplicate assay wells and allowed to incubate for 10 minutes prior to stimulation with PK1. After incubation with test compounds the assay plate is placed in a FLIPR Tetra (Molecular Devices) and PK1 (diluted in assay buffer) is added at the determined EC80 concentration (final). Ligand-dependent changes in intracellular calcium levels are determined by measuring changes in fluorescence of the dye at […] following excitation at 485 nm. […] A minimum of two IC50 values determined from independent assays are generated for each compound.

human PKR1 receptors, sequence (Q8TCW9 whole entry): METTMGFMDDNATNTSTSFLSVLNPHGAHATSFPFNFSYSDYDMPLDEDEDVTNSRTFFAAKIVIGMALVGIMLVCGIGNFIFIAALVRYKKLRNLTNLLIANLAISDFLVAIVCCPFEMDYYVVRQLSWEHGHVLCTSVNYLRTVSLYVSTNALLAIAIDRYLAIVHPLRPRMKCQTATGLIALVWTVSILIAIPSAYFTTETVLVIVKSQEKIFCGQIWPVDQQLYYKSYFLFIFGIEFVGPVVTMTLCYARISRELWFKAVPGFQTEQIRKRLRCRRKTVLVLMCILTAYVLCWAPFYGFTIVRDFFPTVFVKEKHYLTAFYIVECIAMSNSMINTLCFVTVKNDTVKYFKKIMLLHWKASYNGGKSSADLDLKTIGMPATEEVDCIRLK

Compared with COC1(c2ncc(Cl)cc2C)CCCN(C(=O)c2cnnc(N(C)C)c2)C1 (stereo not shown) [Example 37, 5-[3-(5-Chloro-3-methylpyridin-2-yl)-3-methoxypiperidine-1-carbonyl]-N,N-dimethylpyridazin-3-amine], Cc1cc(Cl)cnc1C1(F)CCCN(C(=O)c2cnnc(N(C)C)c2)C1 (stereo not shown) [Example 39, 5-[3-(5-Chloro-3-methylpyridin-2-yl)-3-fluoropiperidine-1-carbonyl]-N,N-dimethylpyridazin-3-amine] is 2.3-fold lower in IC50: 920 nM for the first, 400 nM for the second.

Compared with CNc1cc(C(=O)N2CCCC(F)(c3ncc(Cl)cc3C)C2)cnn1 (stereo not shown) [Example 38, 5-[3-(5-Chloro-3-methylpyridin-2-yl)-3-fluoropiperidine-1-carbonyl]-N-methylpyridazin-3-amine], CCn1cc(C(=O)N2CCCC(F)(c3ncc(Cl)cc3C)C2)cn1 (stereo not shown) [Example 41, 5-Chloro-2-[1-(1-ethyl-1H-pyrazole-4-carbonyl)-3-fluoropiperidin-3-yl]-3-methylpyridine] is 1.9-fold higher in IC50: 1250 nM for the first, 2390 nM for the second.

First: CCn1cc(C(=O)N2CCCC(OC)(c3ncc(Cl)cc3C)C2)cn1 (stereo not shown) [Example 40, 5-Chloro-2-[1-(1-ethyl-1H-pyrazole-4-carbonyl)-3-methoxypiperidin-3-yl]-3-methylpyridine]
Second: COC1(c2ncc(Cl)cc2C)CCCN(C(=O)c2cn(C)nc2N)C1 (stereo not shown) [Example 42, 4-[3-(5-Chloro-3-methylpyridin-2-yl)-3-methoxypiperidine-1-carbonyl]-1-methyl-1H-pyrazol-3-amine]
The IC50 of the first is lower: 3410 nM for the first, greater than 9000 nM for the second.

With Cc1cc(Cl)cnc1C1(F)CCCN(C(=O)c2cn(C)nc2N)C1 (stereo not shown) [Example 43, 4-[3-(5-Chloro-3-methylpyridin-2-yl)-3-fluoropiperidine-1-carbonyl]-1-methyl-1H-pyrazol-3-amine] the IC50 was greater than 5000 nM.
